Source: patent US20220411362A1, “DITERPENOID COMPOUNDS THAT ACT ON PROTEIN KINASE C (PKC)” (K-Gen, Inc., priority 2019, published 2022)
Like-named read-outs stand apart in the source and are kept apart here.

Test: Pharmacokinetic study, intravenous bolus injection in rats
Format: in vivo
Conditions: Sprague Dawley; for concentration at 0.0167 hour / concentration at 0.0833 hour / concentration at 0.25 hour / concentration at 0.5 hour / concentration at 1 hour / concentration at 2 hour / concentration at 4 hour / concentration at 7 hour / concentration at 24 hour / Vd: plasma, rat; for concentration at 0.0167 hour: 0.0167 hour post dose; for concentration at 0.0167 hour / concentration at 0.0833 hour / concentration at 0.25 hour / concentration at 0.5 hour / concentration at 1 hour / concentration at 2 hour / concentration at 4 hour / concentration at 7 hour / concentration at 24 hour: read-out: Concentration in Rat Plasma after Bolus Injection, Mean; for concentration at 0.0833 hour: 0.0833 hour post dose; for concentration at 0.25 hour: 0.25 hour post dose; for concentration at 0.5 hour: 0.5 hour post dose; for concentration at 1 hour: 1 hour post dose; for concentration at 2 hour: 2 hour post dose; for concentration at 4 hour: 4 hour post dose; for concentration at 7 hour: 7 hour post dose; for concentration at 24 hour: 24 hour post dose; for AUC(0-t) / C0 / MRT inf / clearance / half-life / Vd: rat plasma; for Vd: iv
Experimental: Pharmacokinetic (PK) studies were conducted for compounds described in this disclosure, and the PK study of K101-C1327 administered by intravenous injection in rats is given as an example. Briefly, K101-C1327 was dissolved in a pH 5 buffer solution at the concentrations of 2.0 mg/mL, and diluted to 0.04 and 0.08 mg/mL to achieve the doses of 0.1 and 0.2 mg/kg with a dosing volume of 2.5 mL/kg, respectively. The K101-C1327 dosing solutions were administered via intravenous bolus injection in 3 rats (Sprague Dawley). Plasma samples were taken at 1 minute, 5 minutes, 15 minutes, 30 minutes, 1 hour, 2 hours, 4 hours, 7 hours, and 24 hours. The drug concentrations at each time point were determined by LC-MS. The results of drug concentrations and pharmacokinetic parameters are presented in the Table 6 and Table 7, respectively, below.

## CC1=C[C@H]2[C@@]3(O)[C@H](C)C[C@]4(OC(=O)[C@@H](N)CC5CCCCC5)[C@H]([C@@H]3C=C(CO)C[C@]2(O)C1=O)C4(C)C [Compound K101-C1327]
Dose 0.1 mg/kg
  concentration at 0.0167 hour: 216 ng/mL
  concentration at 0.0833 hour: 49.2 ng/mL
  concentration at 0.25 hour: 28.7 ng/mL
  concentration at 0.5 hour: 19.4 ng/mL
  concentration at 1 hour: 14.6 ng/mL
  concentration at 2 hour: 5 ng/mL
  concentration at 4 hour: 1 ng/mL
  concentration at 7 hour: < 1 ng/mL
  concentration at 24 hour: < 1 ng/mL
Dose 0.2 mg/kg
  concentration at 0.0167 hour: 334 ng/mL
  concentration at 0.0833 hour: 102 ng/mL
  concentration at 0.25 hour: 65 ng/mL
  concentration at 0.5 hour: 43.6 ng/mL
  concentration at 1 hour: 37.6 ng/mL
  concentration at 2 hour: 29.1 ng/mL
  concentration at 4 hour: 6 ng/mL
  concentration at 7 hour: < 1 ng/mL
  concentration at 24 hour: < 1 ng/mL
0.1 mg/kg
  AUC(0-t): 48.3 ng·h/mL
  C0: 314 ng/mL
  MRT inf: 0.873 h
  clearance: 32.9 mL/min/kg
  half-life: 0.857 h
0.2 mg/kg
  AUC(0-t): 119 ng·h/mL
  C0: 450 ng/mL
  MRT inf: 2.93 h
  clearance: 21.5 mL/min/kg
  half-life: 2.29 h
0.1 mg/kg, 0.1 mg/kg, read-out: Vss
  Vd: 1.73 L/kg
0.1 mg/kg, 0.1 mg/kg, read-out: Vz
  Vd: 2.44 L/kg
0.2 mg/kg, 0.2 mg/kg, read-out: Vss
  Vd: 2.77 L/kg
0.2 mg/kg, 0.2 mg/kg, read-out: Vz
  Vd: 3.25 L/kg
